Consider one molecule from patent publication US7960369B2, “Receptor function regulator” (Takeda Pharmaceutical Company Limited, priority 2002, dated 2011).

SMILES strings stand for the structures. pEC50: −log10 of the molar value.

For one test, the target named is T1, human GPR40 (Homo sapiens, UniProt O14842).
T1 construct: expressed in transfected cells; host or cells: CHO cell line CHO-hGPR40 No. 104 (pAKKO-111 vector)
The experiment in a line: Effect of regulation of GPR40 receptor function (agonistic effect), intracellular calcium by FLIPR. Type of test: cell-based. To be noted: CHO cell line (No. 104) expressing human GPR40, fluorescence intensity at 30 sec after start of reaction. The method, then: CHO cell line (No. 104) made to express human GPR40 was diluted such that 3×10^4 cells/100 μL were contained, dispensed to a black walled 96-well plate (Costar) at 100 μL per well, and incubated overnight in a CO2 incubator. The changes in the intracellular calcium concentration were measured using FLIPR (Molecular Device). The method is described in the following.
Fluo-3AM (DOJIN) (50 μg) was dissolved in 21 μl DMSO (DOJIN), and an equal amount of 20% pluronic acid (Molecular Probes) was added and mixed, and the mixture was added to 10.6 ml of an assay buffer [prepared by adding 20 ml of 1M HEPES (pH 7.4) (DOJIN) to 1 L of HBSS (Invitrogen), and adding a mixed solution (10 ml) obtained by dissolving probenecid (Sigma) (710 mg) in 1N NaOH (5 ml) and adding and mixing with the above-mentioned HBSS/HEPES solution (5 ml)] supplemented with 105 μl of fetal calf serum to give a fluorescence dye solution. The medium in the cell plate was removed, a fluorescence dye solution was immediately dispensed at 100 μl per well, and incubated in a CO2 incubator for 1 hr to incorporate fluorescence dye into the cell. The incubated cells were washed with the above-mentioned assay buffer. The compound to be added to the cell was diluted with the assay buffer to each concentration and dispensed to a test sample plate. After the above-mentioned pretreatment, changes in the intracellular calcium concentration after addition of the compound was measured by FLIPR, and the agonistic effect was examined. EC50 value was calculated from a dose response curve based on the changes in the fluorescence intensity value at 30 sec after the start of the reaction.
On the technique in general: Calcium assays in cells follow changes in intracellular calcium, usually with a dye or a luminescent sensor.

For test [1], the system named is mouse pancreatic β cell line MIN6. The experiment in a line: Promotion of insulin secretion from MIN6 (insulin immunoassay). The note with it: MIN6, KRBH with 22 mM glucose, 90 min. Type of test: cell-based. How it is done:
(§1) Mouse pancreatic β cell line MIN6 cultured in a flask was detached with PBS containing 2.5 mM EDTA, and seeded and incubated in a 96 well plate for 2 days. The medium used was obtained by adding 15% fetal bovine serum (ThermoTrace), […] 2-mercaptoethanol (Invitrogen), 20 mM HEPES pH 7.3, 100 U/ml penicillin and 100 μg/ml streptomycin to Dulbecco's Modified Eagle Medium (DMEM, Invitrogen) containing 4.5 g/l of glucose. The cells were washed twice with modified Krebs-Ringer bicarbonate buffer (KRBH, 116 mM NaCl, 4.7 mM KCl, 1.2 mM KH2PO4, 1.2 mM MgSO4, 2.5 mM CaCl2, 25 mM NaHCO3, 24 mM HEPES pH 7.3) and preincubated at 37° C. under 5% CO2 conditions for 30 min. Fatty acid diluted and prepared with a buffer obtained by adding 22 mM glucose to the above-mentioned KRBH was added to the cell after preincubation and the cells were incubated at 37° C. under 5% CO2 conditions for 90 min. After incubation, the cell supernatant was recovered and cryopreserved. The insulin content of the supernatant was measured using a commercially available insulin immunoassay kit (Amersham Pharmacia Biotech).
as §1, with “(KBH,” for “(KRBH,”, “The compound” for “Fatty acid”

The test system of the next test is Male SD rats. The experiment in a line: In vivo insulin secretion promoting effect and hypoglycemic action, oral glucose tolerance test. Set-up: species or system rat. The note with it: 30 mg/kg oral, glucose 2 g/kg oral 30 min after administration, Williams test p<=0.025. How it is done:
Male SD rats (CLEA Japan, Inc, 7-week-old) were fasted for one day, and divided into groups (6 per group) based on blood glucose level and body weight. A suspension of the compound of Example 41 in 0.5% methyl cellulose was orally administered at the dose of 30 mg/kg and glucose (2 g/kg) was orally loaded at 30 min after administration. Only 0.5% methyl cellulose was administered to the control group, and similarly loaded with glucose. Plasma was taken before glucose tolerance test, and 7, 30 and 60 minutes after glucose tolerance test, and the blood glucose level and insulin concentration were measured. The blood glucose level was measured by HITACHI autoanalyzer 7070, and insulin was measured by radioimmunoassay ([^125L] Sionoria insulin, Shionogi & Co., Ltd.).

One may read the pEC50 as −log10 of the EC50, conventionally taken in molar units.

T1 sequence (O14842 whole entry): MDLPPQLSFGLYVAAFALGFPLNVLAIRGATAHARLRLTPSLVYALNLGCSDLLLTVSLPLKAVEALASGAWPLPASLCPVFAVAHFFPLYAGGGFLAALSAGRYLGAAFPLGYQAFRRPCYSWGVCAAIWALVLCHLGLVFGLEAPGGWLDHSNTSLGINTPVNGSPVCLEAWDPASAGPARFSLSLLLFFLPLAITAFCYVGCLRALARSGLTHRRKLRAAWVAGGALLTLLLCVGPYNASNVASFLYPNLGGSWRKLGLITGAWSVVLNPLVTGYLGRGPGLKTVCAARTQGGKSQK

As to `O=C(O)CCc1ccc(O[C@@H]2CCc3ccccc32)cc1` [Example 41, (R)-4-[(2,3-dihydro-1H-inden-1-yl)oxy]benzenepropanoic acid], the pEC50 on human GPR40 was 7.26. Also, the “insulin secretion enhancing activity” value in test [1] is given as “significant insulin secretion enhancing activity”. Further, the “increase in insulin versus control group” value in the test with Male SD rats (at 7 minutes after glucose tolerance test) was “significantly greater increase in insulin”. Further, in the test with Male SD rats (at 30 minutes after glucose tolerance test), the “increase in blood glucose level versus control group” value is “significantly suppressed increase in the blood glucose level”.
